Test results taken from US4545991A, “Difficidin and derivative antibacterials” (Merck & Co., Inc., priority 1983, dated 1985).
Values after ≈ are worked out from the molar mass of the structure shown.

How the values were obtained:
[1] = system: B. thetaiotaomicron Clind^r, NCCLS control strain; test: MIC, in vitro agar dilution assay, anaerobic bacteria (Table III); type: cell-based; settings: 10^6 CFU per spot
S. aureus Gm^R Meth^R = test: MIC, in vitro agar dilution assay, aerobic bacteria (Table II); type: cell-based; settings: S. aureus Gm^R Meth^R; 10^6 CFU per spot
Ps. aeruginosa RPL 11^+ = test: as above; type: cell-based; settings: Ps. aeruginosa RPL 11^+; 10^6 CFU per spot
[2] = system: Bacteriodes fragilis Metr^r, Pen^r; test: MIC, in vitro agar dilution assay, anaerobic bacteria (Table III); type: cell-based; settings: 10^6 CFU per spot
[3] = system: B. fragilis NCCLS control strain; test: as above; type: cell-based; settings: 10^6 CFU per spot
[4] = system: C. difficile Clind^r, Fox^r; test: as above; type: cell-based; settings: 10^6 CFU per spot
Prot. vulgaris = test: MIC, in vitro agar dilution assay, aerobic bacteria (Table II); type: cell-based; settings: 10^6 CFU per spot
[5] = system: Peptostreptococcus anaerobius; test: MIC, in vitro agar dilution assay, anaerobic bacteria (Table III); type: cell-based; settings: 10^6 CFU per spot
[6] = system: B. distasonis Pen^r Fox^r; test: as above; type: cell-based; settings: 10^6 CFU per spot
B. fragilis Pen^r = test: as above; type: cell-based; settings: 10^6 CFU per spot
K. pneumoniae Kl^+ = test: MIC, in vitro agar dilution assay, aerobic bacteria (Table II); type: cell-based; settings: 10^6 CFU per spot
Ps. aeruginosa [7] = test: as above; type: cell-based; settings: Ps. aeruginosa, second unmarked strain; 10^6 CFU per spot
Escherichia coli = test: MIC, standard in vitro assay (Table I); type: cell-based; settings: 10^6 CFU; 4 strains tested
From the text: (§1) Using standard in vitro assay techniques, minimal inhibitory concentrations (MIC) have been determined for difficidin and oxydifficidin against a number of bacteria.

Staphylococcus aureus = test: MIC, standard in vitro assay (Table I); type: cell-based; settings: for MIC Range: 10^6 CFU, 3 strains tested
From the text: as §1

Streptococcus faecalis = test: MIC, standard in vitro assay (Table I); type: cell-based; settings: 10^6 CFU; 1 strain tested
From the text: as §1

Serratia marcescens = test: MIC, standard in vitro assay (Table I); type: cell-based; settings: for MIC Range: 10^6 CFU, 1 strain tested
From the text: as §1

Proteus = test: MIC, standard in vitro assay (Table I); type: cell-based; settings: for MIC Range: 10^6 CFU, 3 strains tested
From the text: as §1

Pseudomonas aeruginosa = test: MIC, standard in vitro assay (Table I); type: cell-based; settings: for MIC Range: 10^6 CFU, 3 strains tested
From the text: as §1

Enterobacter = test: MIC, standard in vitro assay (Table I); type: cell-based; settings: 10^6 CFU; 3 strains tested
From the text: as §1

Klebsiella pneumoniae = test: MIC, standard in vitro assay (Table I); type: cell-based; settings: 10^6 CFU; 2 strains tested
From the text: as §1

Salmonella typhimurium = test: MIC, standard in vitro assay (Table I); type: cell-based; settings: for MIC Range: 10^6 CFU, 1 strain tested
From the text: as §1

[8] = system: Fusobacterium mortiferum Fox^r; test: MIC, in vitro agar dilution assay, anaerobic bacteria (Table III); type: cell-based; settings: 10^6 CFU per spot
Ser. marcescens = test: MIC, in vitro agar dilution assay, aerobic bacteria (Table II); type: cell-based; settings: 10^6 CFU per spot
B. ovatus Pen^r = test: MIC, in vitro agar dilution assay, anaerobic bacteria (Table III); type: cell-based; settings: 10^6 CFU per spot
C. difficile Fox^r = test: as above; type: cell-based; settings: C. difficile Fox^r; 10^6 CFU per spot
Eubacterium limosum = test: as above; type: cell-based; settings: 10^6 CFU per spot
Propionibacterium acnes = test: as above; type: cell-based; settings: 10^6 CFU per spot
[9] = system: Klebsiella pneumoniae MB 4005; test: standard mouse protection test, experimental systemic infection; type: in vivo, CD1 female mice; settings: × 2 i.p. doses (immediately after infection and 6 hours later), 7 days
Protocol: The antibacterial efficacy of difficidin and its derivatives was further determined in standard mouse protection tests. An experimental systemic infection was produced in CD1 female mice (Charles River Breeding Laboratories, Wilmington, MA) by the intraperitoneal injection of a suitably diluted broth culture of Klebsiella pneumoniae MB 4005. The test antibacterial compounds and the control drug (streptomycin) were administered parenterally (intraperitoneally) immediately after infection and again 6 hours later. At least 4 fourfold dilutions of each agent were tested. There were 5 mice at each dose level. […] Under the conditions of the test, all infected untreated mice died within 48 hours.
Mice were protected by the administration of the test antibacterial compounds or streptomycin at the median effective doses shown in Table IV below.

E. coli TEM 2^+ = test: MIC, in vitro agar dilution assay, aerobic bacteria (Table II); type: cell-based; settings: E. coli TEM 2^+; 10^6 CFU per spot
Actinomyces naeslundii = test: MIC, in vitro agar dilution assay, anaerobic bacteria (Table III); type: cell-based; settings: 10^6 CFU per spot
Ps. aeruginosa [10] = test: MIC, in vitro agar dilution assay, aerobic bacteria (Table II); type: cell-based; settings: Ps. aeruginosa, first unmarked strain; 10^6 CFU per spot
Strep. faecalis = test: as above; type: cell-based; settings: 10^6 CFU per spot
From the text: (§2) Further evaluations of the antibacterial spectrum of difficidin and oxydifficidin were undertaken, especially as compared to the antibacterial spectrum of the valuable antibiotic cefoxitin, which is well known for its wide spectrum of antibacterial activity. An in vitro agar dilution assay was used, inoculum 10^6 CFU per spot. Table II below illustrates the results obtained for various aerobic bacteria, and Table III illustrates the results obtained for various anaerobic bacteria.

E. coli = test: as above; type: cell-based; settings: 10^6 CFU per spot
From the text: as §2

S. aureus = test: as above; type: cell-based; settings: 10^6 CFU per spot
From the text: as §2

E. coli DC 2 = test: as above; type: cell-based; settings: E. coli DC 2; 10^6 CFU per spot

Compound: C=CC=C(C)CCC1CC=CC=C(C)C(OP(=O)(O)O)CCCC=CC=CC=CCC(C)C(=C)CC(=O)O1 (stereo not drawn) [Difficidin, difficidin]
- MIC [1]: 0.06 µg/mL (≈ 0.11 µM)
- MIC (S. aureus Gm^R Meth^R): 8.0 µg/mL (≈ 14.7 µM)
- MIC (Ps. aeruginosa RPL 11^+): 8.0 µg/mL (≈ 14.7 µM)
- MIC [2]: 0.125 µg/mL (≈ 0.229 µM)
- MIC [3]: 0.06 µg/mL (≈ 0.11 µM)
- MIC [4]: 0.125 µg/mL (≈ 0.229 µM)
- MIC (Prot. vulgaris): 0.5 µg/mL (≈ 0.918 µM)
- MIC [5]: 0.06 µg/mL (≈ 0.11 µM)
- MIC [6]: > 128 µg/mL
- MIC (B. fragilis Pen^r): 0.125 µg/mL (≈ 0.229 µM)
- MIC (K. pneumoniae Kl^+): 8.0 µg/mL (≈ 14.7 µM)
- MIC (Ps. aeruginosa [7]): 8.0 µg/mL (≈ 14.7 µM)
- MIC Range (Escherichia coli): 8 µg/mL (≈ 14.7 µM)
- MIC Range (Staphylococcus aureus): 8 to 16 µg/mL
- effectiveness of difficidin relative to oxydifficidin (Staphylococcus aureus; S. aureus, in most cases): four times more effective
- MIC Range (Streptococcus faecalis): 128 µg/mL (≈ 235 µM)
- MIC Range (Serratia marcescens): 4 µg/mL (≈ 7.34 µM)
- effectiveness of difficidin relative to oxydifficidin (Serratia marcescens; Serratia marcescens, in most cases): four times more effective
- MIC Range (Proteus): 0.5 to 8 µg/mL
- effectiveness of difficidin relative to oxydifficidin (Proteus; Proteus, in most cases): four times more effective
- MIC Range (Pseudomonas aeruginosa): 8 µg/mL (≈ 14.7 µM)
- effectiveness of difficidin relative to oxydifficidin (Pseudomonas aeruginosa; Ps. aeruginosa, in most cases): four times more effective
- MIC Range (Enterobacter): 8 to 16 µg/mL
- MIC Range (Klebsiella pneumoniae): 8 µg/mL (≈ 14.7 µM)
- MIC Range (Salmonella typhimurium): 8 µg/mL (≈ 14.7 µM)
- effectiveness of difficidin relative to oxydifficidin (Salmonella typhimurium; Salmonella typhimurium, in most cases): four times more effective
- MIC [8]: 0.03 µg/mL (≈ 0.0551 µM)
- MIC (Ser. marcescens): 4.0 µg/mL (≈ 7.34 µM)
- MIC (B. ovatus Pen^r): 0.125 µg/mL (≈ 0.229 µM)
- MIC (C. difficile Fox^r): 0.06 µg/mL (≈ 0.11 µM)
- MIC (Eubacterium limosum): > 128 µg/mL
- MIC (Propionibacterium acnes): 1 µg/mL (≈ 1.84 µM)
- ED50 ([9]; Test No. 3): 1.56 mg/kg
- MIC (E. coli TEM 2^+): 8.0 µg/mL (≈ 14.7 µM)
- MIC (Actinomyces naeslundii): > 128 µg/mL
- MIC (Ps. aeruginosa [10]): 8.0 µg/mL (≈ 14.7 µM)
- MIC (Strep. faecalis): > 128.0 µg/mL
- MIC (E. coli): 8.0 µg/mL (≈ 14.7 µM)
- MIC (S. aureus; first unmarked strain): 16.0 µg/mL (≈ 29.4 µM)
- MIC (S. aureus; second unmarked strain): 8.0 µg/mL (≈ 14.7 µM)
- MIC (E. coli DC 2): 8.0 µg/mL (≈ 14.7 µM)

Compound: C=CC=C(C)CCC1CC=CC=C(C)C(OP(=O)(O)O)CCCC=CC=CC=CC(O)C(C)C(=C)CC(=O)O1 (stereo not drawn) [Oxydifficidin, oxydifficidin]
- MIC [1]: 0.25 µg/mL (≈ 0.446 µM)
- MIC (S. aureus Gm^R Meth^R): 32.0 µg/mL (≈ 57.1 µM)
- MIC (Ps. aeruginosa RPL 11^+): 16.0 µg/mL (≈ 28.5 µM)
- MIC [2]: 0.25 µg/mL (≈ 0.446 µM)
- MIC [3]: 0.25 µg/mL (≈ 0.446 µM)
- MIC [4]: 0.06 µg/mL (≈ 0.107 µM)
- MIC (Prot. vulgaris): 8.0 µg/mL (≈ 14.3 µM)
- MIC [5]: 0.06 µg/mL (≈ 0.107 µM)
- MIC [6]: > 128 µg/mL
- MIC (B. fragilis Pen^r): 0.125 µg/mL (≈ 0.223 µM)
- MIC (K. pneumoniae Kl^+): 8.0 µg/mL (≈ 14.3 µM)
- MIC (Ps. aeruginosa [7]): 32.0 µg/mL (≈ 57.1 µM)
- MIC Range (Escherichia coli): 4 to 16 µg/mL
- MIC Range (Staphylococcus aureus): 32 to 128 µg/mL
- MIC Range (Streptococcus faecalis): 128 µg/mL (≈ 228 µM)
- MIC Range (Serratia marcescens): 16 µg/mL (≈ 28.5 µM)
- MIC Range (Proteus): 2 to 32 µg/mL
- MIC Range (Pseudomonas aeruginosa): 16 to 32 µg/mL
- MIC Range (Enterobacter): 32 to 64 µg/mL
- MIC Range (Klebsiella pneumoniae): 8 µg/mL (≈ 14.3 µM)
- MIC Range (Salmonella typhimurium): 32 µg/mL (≈ 57.1 µM)
- MIC [8]: 0.125 µg/mL (≈ 0.223 µM)
- MIC (Ser. marcescens): 16.0 µg/mL (≈ 28.5 µM)
- MIC (B. ovatus Pen^r): 0.25 µg/mL (≈ 0.446 µM)
- MIC (C. difficile Fox^r): 0.06 µg/mL (≈ 0.107 µM)
- MIC (Eubacterium limosum): > 128 µg/mL
- MIC (Propionibacterium acnes): 8 µg/mL (≈ 14.3 µM)
- ED50 ([9]; Test No. 1): 12.25 mg/kg
- ED50 ([9]; Test No. 2): 14.85 mg/kg
- MIC (E. coli TEM 2^+): 16.0 µg/mL (≈ 28.5 µM)
- MIC (Actinomyces naeslundii): 64 µg/mL (≈ 114 µM)
- MIC (Ps. aeruginosa [10]): 32.0 µg/mL (≈ 57.1 µM)
- MIC (Strep. faecalis): > 128.0 µg/mL
- MIC (E. coli): 4.0 µg/mL (≈ 7.13 µM)
- MIC (S. aureus; first unmarked strain): > 128.0 µg/mL
- MIC (S. aureus; second unmarked strain): 32.0 µg/mL (≈ 57.1 µM)
- MIC (E. coli DC 2): 4.0 µg/mL (≈ 7.13 µM)
